Activity data for 2 compounds are collected here from ChEMBL document CHEMBL1147136, “Constituents of Oxandra cf. xylopioides with anti-inflammatory activity” (J Nat Prod, 2007).

Series [1] concerns Mus musculus. Put plainly: Reduction of carrageenan-induced paw edema volume in mouse at 125 mg/kg, po after 1 hr relative to control. Type of series: functional. The arrangement: scale not given: the % may be the effect or the level left.
The subject of series [2] is RAW264.7. In words: Cytotoxicity against mouse RAW264.7 cells at 100 uM by MTT assay. It counts as cell-based. Particulars: raw264.7, 100 µM.
The test system of series [3] is Mus musculus. In words: Reduction of carrageenan-induced paw edema volume in mouse at 125 mg/kg, po after 3 hrs relative to control. It counts as functional. Also noted: scale not given: the % may be the effect or the level left. For orientation: In the carrageenan paw model, swelling and tenderness develop within hours.
The subject of series [4] is Mus musculus. Put plainly: Reduction of carrageenan-induced paw edema volume in mouse at 125 mg/kg, po after 5 hrs relative to control. It counts as functional. The arrangement: scale not given: the % may be the effect or the level left.
Series [5] concerns RAW264.7. Put plainly: Reduction of IL1-beta mRNA synthesis in mouse RAW264.7 cells at 100 uM. Type of series: functional, cell-based.
Series [6] relates to RAW264.7. In words: Effect on IL1-beta production in mouse RAW264.7 cells at 100 uM. Type of series: functional.

Calls of active or inactive are those of the source. The calls are words filed in the database; no cut-off is given here.

Regarding `CC(C)[C@@]1(C)CCC([C@H]2CC[C@@]3(C)[C@@H]4CC[C@H]5C(C)(C)[C@@H](O)CC[C@@]56C[C@@]46CC[C@]23C)CO1` (stereo partly drawn) [BERENJENOL], the Activity in the series on Mus musculus [1] was 44%; in the series with RAW264.7 [2], “Not Active”; with Mus musculus [3], 64%; in the series on Mus musculus [4], 51%.
As to `COc1cc(C)c(OC)c(O)c1C(C)C` [ISOESPINTANOL], in the series with RAW264.7 [5], the outcome was Active. The Activity entry was “Not Active” with RAW264.7 [2], 43% in the series on Mus musculus [3] and 72% with RAW264.7 [6].
